Patent US20110020843A1, “LABEL-FREE METHODS RELATED TO PHOSPHODIESTERASES” (priority 2009, published 2011)

Assays:
[1] = tested on: quiescent A431 cells (endogenous PDE4 isoforms); assay: Label-free Epic RWG biosensor DMR assay of PDE inhibitors in synchronized quiescent A431 cells; assay type: cell-based, human; details: A431; 10 micromolar; ultra-high confluent cells, 2 hrs in low CO2 (~2%) (FIG. 12A)
Description: Cells were typically grown using ˜1 to 2×10^4 cells per well at passage 3 to 15 suspended in 50 μl of the corresponding culture medium in the biosensor microplate, and were cultured at 37° C. under air/5% CO2 for ˜1 day. Except for A431 which was subject to ˜20 hr starvation through continuously culture in the serum-free DMEM, the other cell types were directly assayed without starvation.
Epic® wavelength interrogation system (Corning Inc., Corning, N.Y.) was used for whole cell sensing. This system consists of a temperature-control unit, an optical detection unit, and an on-board liquid handling unit with robotics. The detection unit is centered on integrated fiber optics, and enables kinetic measures of cellular responses with a time interval of ˜15 sec. The compound solutions were introduced by using the on-board liquid handling unit (i.e., pippetting).
The RWG biosensor is capable of detecting minute changes in local index of refraction near the sensor surface. Since the local index of refraction within a cell is a function of density and its distribution of biomass (e.g., proteins, molecular complexes), the biosensor exploits its evanescent wave to non-invasively detect ligand-induced dynamic mass redistribution in native cells. The evanescent wave extends into the cells and exponentially decays over distance, leading to a characteristic sensing volume of ˜150 nm, implying that any optical response mediated through the receptor activation only represents an average over the portion of the cell that the evanescent wave is sampling. The aggregation of many cellular events downstream the receptor activation determines the kinetics and amplitudes of a ligand-induced DMR.
All studies were carried out at a controlled temperature (28° C.). At least two independent sets of experiments, each with at least three replicates, were performed.
We further examined the DMR signal, if any, of the quiescent A431 cells upon treatment with PDE inhibitors. […] The quiescent A431 cells obtained under the same culture condition were used. Here the initial seeding numbers of cells were relatively low (˜20K cells per well in a 384 well Epic biosensor microplate tissue culture treated). […] After washing with the serum free medium, the cells were continuously cultured in the serum free medium for another 24 hrs to reach a quiescent state. Here the quiescent state was largely achieved through serum withdrawl. […] The cell membrane bound carbonic anahydrase is a known sensor for CO2 level.
In FIG. 4 the quiescent cells were achieved primarily through serum withdrawl. We were interested in the quiescent cells achieved through both contact inhibition and serum withdrawl. To do so, much higher initial seeding numbers of cells (>=25k cells per well for the 384 well Epic biosensor microplate) were used. […] Here both quiescent cells were subject to the same synchronization condition (2 hr incubation in the HBSS assay solution in a low CO2 environment).
Here the quiescent A431 cells were used using 22k cells per well in 384 well Epic biosensor microplates, followed by one day (˜24 hrs) culture in serum medium and 1 day (˜24 hrs) serum free medium, and sequential synchronization in the HBSS buffer solution under a relatively low CO2 environment for 2 hrs. […] For comparison, the DMR signal of cells stimulated with the buffer only (“Vehicle”) were included.

A549 cells = assay: DMR modulation index against panel of markers in A549 cells; assay type: cell-based, human
Description: 191. To characterize the polypharmacology including PDE4 inhibitory activity of compounds, we used the known EGFR inhibitor tyrphostin 51 as an example. Quiescent A431 and proliferating A549 cells were separately exposed to tyrphostin 51 at 10 micromolar for about 1 hr to generate its primary profiles, followed by stimulation with each marker at a fixed concentration for another 1 hr or so to generate secondary profiles of the tyrphostin 51 against the panels of markers in both types of cells. Next, one or more specific DMR parameters were chosen as a readout for plotting the DMR index of the molecule.
193. The second panel of markers was contacted with A549 cells at concentrations close to each of the marker's EC80 or EC100, and DMR measurements were obtained with and EPIC® system. This panel included poly(I:C), SLIGKV-amide, pinacidil, PMA, histamine, and forskolin. Each of these markers also leads to a wide array of cell signaling. Using Epic® cellular assays in conjunction with chemical biology and cell biology approach similar to the EGFR DMR mentioned above, we have determined the pathway(s) and network interaction(s) that is accounted for each marker-induced DMR signal in A549 cells. The main observations are summarized below. Poly(I:C) is an agonist for endogenous Toll-like receptor(s) in A549, whose activation leads to IKK pathway and AKT pathway. SLIGKV-amide is an agonist for endogenous protease activated receptor subtype 2 (PAR2) in A549, whose activation leads to Gq-, Gi- and G12/13-mediated signaling. Pinacidil is an opener for endogenous ATP-sensitive potassium (KATP) ion channel in A549, whose activation leads to Rho- and JAK-mediated signaling. PMA is an activator for protein kinase C(PKC), whose activation leads to PKC pathway and degranulation. Histamine is a natural agonist for endogenous histamine receptors (dominantly H1R, and possibly H3R), whose activation leads to dual signaling, possibly through Gq and Gi mediated signaling in A549. Forskolin is an activator for adenylyl cyclases, whose activation leads to cAMP-PKA pathway in A549. […] Each DMR signal represents an averaged response of 4 replicates.
194. For the pinacidil DMR response in A549, the amplitude of the N-DMR (i.e., the amplitude 30 min after stimulation) was chosen. For the poly(I:C) DMR response in A549, the amplitude of the late DMR (i.e., the amplitude 50 min after stimulation) was chosen. For the PMA response in A549, the late DMR amplitude (i.e., the amplitude 50 min after stimulation) was chosen. For the SLIGKV-amide DMR response in A549, the P-DMR amplitude (i.e., the amplitude 20 min after stimulation) was chosen. For the forskolin response in A549 cells, the P-DMR amplitude (i.e., the amplitude 50 min after stimulation) was chosen. For the histamine response in A549, both the early DMR amplitude (i.e., amplitude 10 min after stimulation) and the late response (i.e., the amplitude 30 min after stimulation) were chosen. For the epinephrine response in A431, the P-DMR amplitude (i.e., the amplitude 50 min after stimulation) was chosen. For the nicotinic acid DMR in A431, the P-DMR amplitude (i.e., the amplitude 3 min after stimulation) was chosen. For the EGF DMR in A431, both the P-DMR (i.e., the amplitude 4 min after stimulation) and N-DMR amplitudes (i.e., the decaying amplitude between 4 min and 40 min after simulation) were chosen. For the histamine response in A431, the P-DMR amplitude (i.e., the amplitude 3 min after stimulation) was chosen. The percentage of modulation of the marker against each marker was calculated by normalizing the secondary profile of the molecule against the marker in the cell to the primary profile of the same marker acting on the same cell.

[2] = 10 micromolar pretreatment ~1 hr

N#CC(C#N)=C(N)/C(C#N)=C/c1cc(O)c(O)c(O)c1 [tyrphostin 51]
primary DMR profile [1]: closely resembled the classic Gs-DMR signals
modulation of PMA DMR (late DMR amplitude 50 min) (A549 cells; [2]): −6%
modulation of SLIGKV-amide DMR (P-DMR amplitude 20 min) (A549 cells; [2]): 0%
modulation of forskolin DMR (P-DMR amplitude 50 min) (A549 cells; [2]): −23%
modulation of histamine early response (amplitude 10 min) (A549 cells; [2]): +6%
modulation of histamine late response (amplitude 30 min) (A549 cells; [2]): 0%
modulation of poly(I:C) DMR (late DMR amplitude 50 min) (A549 cells; [2]): +5%
effect of pretreatment on forskolin DMR signal (A549 cells; FIG. 12C): partially attenuated
modulation of pinacidil DMR (N-DMR amplitude 30 min) (A549 cells; tyrphostin 51 at 10 micromolar pretreatment ~1 hr): 0%
